Laboratory results published in patent publication US20240189343A1, “TREATMENT OF VIRUS INFECTIONS” (priority 2021, published 2024).
Counter-ions that a name gives are not always drawn. Like-named read-outs stand apart in the source and are kept apart here.

What was measured:
DENV1 (strain Hawaii) = assay: microbe, parasite or virus in culture; assay type: cell-based, dengue virus
[1] = tested on: DENV2 (strain New Guinea C); assay: microbe, parasite or virus in culture; assay type: cell-based, dengue virus
DENV3 (strain H87) = assay: microbe, parasite or virus in culture; assay type: cell-based, dengue virus
DENV4 (strain H241) = assay: microbe, parasite or virus in culture; assay type: cell-based, dengue virus
[2] = tested on: ZIKV African lineage (Strain MP1751); assay: microbe, parasite or virus in culture; assay type: cell-based, Zika virus
[3] = tested on: ZIKV Asian lineage (PF/13); assay: microbe, parasite or virus in culture; assay type: cell-based, Zika virus
YF17D = assay: microbe, parasite or virus in culture; assay type: cell-based, yellow fever virus
Zika virus PF13 [4] = assay: Zika virus infection of HeLa Kyoto cells, immunofluorescence infectivity readout (Example 1); assay type: cell-based; conditions: MOI 0.5, 3 and 5, 600, 200, 60 μg/ml, 1 h pre-incubation, 48 h
Description: (§1) Cells were detached and counted. […] 50 μl of diluted virus or media (uninfected control) was immediately added. […] After 48 h, the plates were washed with PBS, fixed for 30 mins with 4% formaldehyde, washed again with PBS, and stored in PBS at 4° C. until staining. Cells were immunostained with immunofluorescence staining. Briefly, any residual formaldehyde was quenched with 50 mM ammonium chloride, after which cells were permeabilised (0.1% Triton X100) and stained with an antibody recognizing flavivirus envelope protein (Millipore, MAB10216). The primary antibodies were detected with an Alexa-488 conjugate secondary antibody (Life Technologies, A11001), and nuclei were stained with Hoechst. […] Normalized percentages of inhibition were calculated using the following formula: […]

Zika virus PF13 [5] = assay: Zika virus infection of Vero AD cells, immunofluorescence infectivity readout (Example 1); assay type: cell-based; conditions: for inhibition of Zika virus infection: Vero AD cells, MOI 0.05 and 0.01, 600, 200, 60 μg/ml, 1 h pre-incubation, 48 h
Description: as §1

Huh-7 cells = conditions: MTT, 48 h
HeLa Kyoto cells [6] = assay: MTT cytotoxicity in HeLa Kyoto cells (Example 2); conditions: 48 h
Vero AD cells = assay: MTT cytotoxicity on uninfected Vero AD cells (Example 1); conditions: 600, 200, 60 μg/ml
HeLa Kyoto cells [7] = assay: MTT cytotoxicity on uninfected HeLa Kyoto cells (Example 1); conditions: 600, 200, 60 μg/ml
[8] = tested on: Huh-7 and HeLa Kyoto cells; assay: MTT cytotoxicity, Example 2, cell line not specified in the statement; conditions: highest concentration tested (10 mg/ml); no cytotoxicity at the other concentrations
rats = conditions: cited from earlier work
Zika virus = conditions: 200 μg/ml; Vero cells; cited from earlier work

## CC[C@@]1([C@@H]2O[C@@H]([C@H]3O[C@@](O)(CO)[C@H](C)C[C@@H]3C)C[C@@H]2C)CC[C@H]([C@]2(C)CC[C@]3(C[C@H](O)[C@@H](C)[C@@H]([C@@H](C)[C@@H](OC)[C@H](C)C(=O)O)O3)O2)O1 [Monensin, Monensin sodium salt, reference compound]
DENV1 (strain Hawaii); Dengue virus, DENV1, Huh-7
  EC50: 1.19 nM
[1]; Dengue virus, DENV2, Huh-7
  EC50: 0.88 nM
DENV3 (strain H87); Dengue virus, DENV3, Huh-7
  EC50: 0.69 nM
DENV4 (strain H241); Dengue virus, DENV4, Huh-7
  EC50: 2.61 nM
[2]; Zika virus, HeLa Kyoto
  EC50: 70.7 nM
[3]; Zika virus, HeLa Kyoto
  EC50: 68.1 nM
YF17D; Yellow fever virus, Huh-7
  EC50: 6.54 nM

## dextran sulfate [listing 1 of 3 here]
Zika virus PF13 [4]
  inhibition of Zika virus infection: significant and dose dependent inhibition
Zika virus PF13 [4]; listed as dextran sulfate
  inhibition of Zika virus infection: inhibits Zika virus infection in human Hela cells in a concentration dependent manner
Zika virus PF13 [5]; 200 μg/ml, Vero cells, FIG. 2A (MOI 0.05)
  % of infection inhibition: more than 80%
Zika virus PF13 [5]
  inhibition of Zika virus infection: significant and dose dependent inhibition
Zika virus PF13 [5]; listed as dextran sulfate
  inhibition of Zika virus infection: inhibits Zika virus infection in Vero cells in a concentration dependent manner
DENV1 (strain Hawaii)
  IC50 (inhibition of infection): ≤ 600 µg/mL
  inhibition of virus infection into human cells: > 90%
DENV1 (strain Hawaii); 48 h
  EC50: 290 µg/mL
[1]
  IC50 (inhibition of infection): ≤ 600 µg/mL
[1]; 48 h
  EC50: 120 µg/mL
DENV3 (strain H87)
  IC50 (inhibition of infection): ≤ 600 µg/mL
DENV3 (strain H87); 48 h
  EC50: 30 µg/mL
DENV4 (strain H241)
  IC50 (inhibition of infection): ≤ 600 µg/mL
DENV4 (strain H241); 48 h
  EC50: 610 µg/mL
[2]
  IC50 (inhibition of infection): less than 0.140 mg/ml
[2]; 48 h
  EC50: 60 µg/mL
[3]
  IC50 (inhibition of infection): less than 0.140 mg/ml
  inhibition of virus infection into human cells: > 90%
[3]; 48 h
  EC50: 140 µg/mL
YF17D
  IC50 (inhibition of infection): less than 0.05 mg/ml
  inhibition of virus infection into human cells: > 90%
YF17D; 48 h
  EC50: 40 µg/mL
Huh-7 cells; table line Dengue virus 1 Hawaii strain (Huh-7)
  TC50: >10000 µg/mL
Huh-7 cells; table line Dengue virus 2 New Guinea C strain (Huh-7)
  TC50: >10000 µg/mL
Huh-7 cells; table line Dengue virus 3 H87 strain (Huh-7)
  TC50: >10000 µg/mL
Huh-7 cells; table line Dengue virus 4 H241 strain (Huh-7)
  TC50: >10000 µg/mL
Huh-7 cells; table line Yellow Fever virus 17D strain (Huh-7)
  TC50: >10000 µg/mL
HeLa Kyoto cells [6]; table line Zika virus African strain (HeLa Kyoto)
  TC50: >10000 µg/mL
HeLa Kyoto cells [6]; table line Zika virus Asian strain (HeLa Kyoto)
  TC50: >10000 µg/mL
Vero AD cells
  cytotoxicity (MTT): No significant cytotoxicity
HeLa Kyoto cells [7]
  cytotoxicity (MTT): No significant cytotoxicity
[8]
  cytotoxicity (maximal): ≤ 16%

## dextran sulfate [listing 2 of 3 here]
rats
  toxicity to rats: highly toxic

## dextran sulfate [listing 3 of 3 here]
Zika virus
  % infection inhibition: about 60%
